Test results reported in ChEMBL document CHEMBL4257571, “Discovery of 5-(2-chloro-4'-(1H-imidazol-1-yl)-[1,1'-biphenyl]-4-yl)-1H-tetrazole as potent and orally efficacious S-nitrosoglutathione reductase (GSNOR) inhibitors for the potential treatment of COPD” (Bioorg Med Chem Lett, 2018).

Legend:
CYP2C9 = CYP2C9 (Homo sapiens, UniProt P11712); experiment: Inhibition of CYP2C9 in human liver microsomes at 10 uM after 20 mins in presence of NADPH by LC/MS/MS analysis relative to control; format: ADME
Sequence of CYP2C9 (P11712 whole entry): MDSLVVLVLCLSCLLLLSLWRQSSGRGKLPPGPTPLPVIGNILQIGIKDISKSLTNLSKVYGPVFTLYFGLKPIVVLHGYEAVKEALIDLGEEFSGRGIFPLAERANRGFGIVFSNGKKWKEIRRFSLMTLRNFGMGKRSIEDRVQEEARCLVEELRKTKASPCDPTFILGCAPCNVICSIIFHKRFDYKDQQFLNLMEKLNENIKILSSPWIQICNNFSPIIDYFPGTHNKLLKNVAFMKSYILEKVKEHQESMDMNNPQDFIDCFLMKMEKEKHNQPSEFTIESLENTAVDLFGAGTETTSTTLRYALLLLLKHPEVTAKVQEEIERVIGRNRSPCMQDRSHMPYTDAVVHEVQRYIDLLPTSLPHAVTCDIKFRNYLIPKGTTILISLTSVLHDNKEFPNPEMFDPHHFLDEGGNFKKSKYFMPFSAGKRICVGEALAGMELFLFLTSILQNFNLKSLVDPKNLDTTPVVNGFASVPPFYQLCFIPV

CYP2C19 = CYP2C19 (Homo sapiens, UniProt P33261); experiment: Inhibition of CYP2C19 in human liver microsomes at 10 uM after 40 mins in presence of NADPH by LC/MS/MS analysis relative to control; format: ADME
Sequence of CYP2C19 (P33261 whole entry): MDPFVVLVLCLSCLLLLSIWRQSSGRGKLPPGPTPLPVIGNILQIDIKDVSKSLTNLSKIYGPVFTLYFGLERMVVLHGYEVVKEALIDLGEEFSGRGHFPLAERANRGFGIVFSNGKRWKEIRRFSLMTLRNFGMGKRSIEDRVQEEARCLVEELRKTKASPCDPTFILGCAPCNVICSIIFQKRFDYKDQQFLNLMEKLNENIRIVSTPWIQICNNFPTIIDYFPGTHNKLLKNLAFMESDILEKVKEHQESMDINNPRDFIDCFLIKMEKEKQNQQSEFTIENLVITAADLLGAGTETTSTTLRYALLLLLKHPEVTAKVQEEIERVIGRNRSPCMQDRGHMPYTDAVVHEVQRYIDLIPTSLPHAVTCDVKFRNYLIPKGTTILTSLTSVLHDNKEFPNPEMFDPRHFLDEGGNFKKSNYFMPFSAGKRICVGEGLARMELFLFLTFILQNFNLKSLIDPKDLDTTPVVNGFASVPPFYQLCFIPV

[1] = biological target: T1, Alcohol dehydrogenase class-3 (Homo sapiens, UniProt P11766); experiment: Inhibition of human GSNOR assessed as reduction in NADH consumption after 3 mins by spectrophotometric analysis
Target sequence in this assay (P11766 whole entry): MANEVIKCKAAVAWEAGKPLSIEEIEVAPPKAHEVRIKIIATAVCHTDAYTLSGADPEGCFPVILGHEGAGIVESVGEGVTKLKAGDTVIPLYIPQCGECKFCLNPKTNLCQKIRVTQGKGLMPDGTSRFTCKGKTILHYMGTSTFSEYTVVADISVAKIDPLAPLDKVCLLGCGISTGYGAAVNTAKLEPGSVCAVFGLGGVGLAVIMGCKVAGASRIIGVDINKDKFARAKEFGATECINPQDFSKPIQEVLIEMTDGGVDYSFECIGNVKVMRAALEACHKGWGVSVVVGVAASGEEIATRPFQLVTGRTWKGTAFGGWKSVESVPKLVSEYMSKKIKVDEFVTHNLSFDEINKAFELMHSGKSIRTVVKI

CYP2D6 = CYP2D6 (Homo sapiens, UniProt P10635); experiment: Inhibition of CYP2D6 in human liver microsomes at 10 uM after 20 mins in presence of NADPH by LC/MS/MS analysis relative to control; format: ADME; details: liver microsomes
Sequence of CYP2D6 (P10635 whole entry): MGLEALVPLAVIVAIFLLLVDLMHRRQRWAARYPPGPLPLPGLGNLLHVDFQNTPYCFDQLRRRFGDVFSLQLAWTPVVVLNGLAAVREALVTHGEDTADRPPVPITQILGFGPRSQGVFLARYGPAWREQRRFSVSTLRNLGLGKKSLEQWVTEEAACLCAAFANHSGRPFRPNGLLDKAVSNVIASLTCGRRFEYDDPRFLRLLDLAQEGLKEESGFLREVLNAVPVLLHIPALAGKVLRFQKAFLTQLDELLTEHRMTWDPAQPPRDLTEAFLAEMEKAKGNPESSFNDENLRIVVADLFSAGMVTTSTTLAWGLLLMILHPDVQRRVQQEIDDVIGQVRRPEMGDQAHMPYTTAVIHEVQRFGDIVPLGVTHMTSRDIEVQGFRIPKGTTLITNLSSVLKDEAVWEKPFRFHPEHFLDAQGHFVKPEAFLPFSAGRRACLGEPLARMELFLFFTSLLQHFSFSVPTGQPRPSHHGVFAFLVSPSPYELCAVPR

CYP1A2 = biological target: T2, CYP1A2 (Homo sapiens, UniProt P05177); experiment: Inhibition of CYP1A2 in human liver microsomes at 10 uM after 20 mins in presence of NADPH by LC/MS/MS analysis relative to control; format: ADME; details: liver microsomes
T2 sequence (P05177 whole entry): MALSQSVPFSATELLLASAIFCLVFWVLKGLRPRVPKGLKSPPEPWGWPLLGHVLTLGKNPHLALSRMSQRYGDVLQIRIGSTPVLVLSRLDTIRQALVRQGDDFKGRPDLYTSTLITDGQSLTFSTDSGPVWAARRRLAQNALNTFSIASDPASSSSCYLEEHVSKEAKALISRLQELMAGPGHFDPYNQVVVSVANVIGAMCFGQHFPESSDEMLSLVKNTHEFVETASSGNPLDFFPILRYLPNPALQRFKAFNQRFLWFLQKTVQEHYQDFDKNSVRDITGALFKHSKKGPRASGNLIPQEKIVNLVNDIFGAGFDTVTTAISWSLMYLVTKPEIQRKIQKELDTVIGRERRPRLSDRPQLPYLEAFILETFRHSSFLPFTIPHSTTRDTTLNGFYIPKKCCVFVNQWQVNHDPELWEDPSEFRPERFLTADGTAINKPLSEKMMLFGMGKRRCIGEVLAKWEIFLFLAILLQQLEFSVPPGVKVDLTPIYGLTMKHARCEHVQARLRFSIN

CYP3A4 = CYP3A4 (Homo sapiens, UniProt P08684); experiment: Inhibition of CYP3A4 in human liver microsomes at 10 uM after 20 mins in presence of NADPH by LC/MS/MS analysis relative to control; format: ADME; details: liver microsomes
Sequence of CYP3A4 (P08684 whole entry): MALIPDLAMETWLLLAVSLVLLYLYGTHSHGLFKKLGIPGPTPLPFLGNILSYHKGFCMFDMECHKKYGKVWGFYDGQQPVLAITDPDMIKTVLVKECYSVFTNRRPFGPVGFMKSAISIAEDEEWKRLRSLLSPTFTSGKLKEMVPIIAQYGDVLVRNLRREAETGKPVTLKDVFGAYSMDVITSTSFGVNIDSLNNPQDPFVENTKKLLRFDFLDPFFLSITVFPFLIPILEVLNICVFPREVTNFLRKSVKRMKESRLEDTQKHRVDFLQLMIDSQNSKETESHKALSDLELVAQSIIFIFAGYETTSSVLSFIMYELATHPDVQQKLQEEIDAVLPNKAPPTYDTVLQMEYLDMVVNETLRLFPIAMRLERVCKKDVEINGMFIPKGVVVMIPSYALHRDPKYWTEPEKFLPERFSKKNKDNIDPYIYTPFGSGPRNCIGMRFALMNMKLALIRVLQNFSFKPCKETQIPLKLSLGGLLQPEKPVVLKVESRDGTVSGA

[2] = Metabolic stability of mouse liver microsomes assessed as parent compound remaining at 0.1 uM after 60 mins in presence of NADPH by LC/MS/MS analysis; format: ADME, microsome; details: read-out: Stability
[3] = Metabolic stability of human liver microsomes assessed as parent compound remaining at 0.1 uM after 60 mins in presence of NADPH by LC/MS/MS analysis; format: ADME, microsome; details: read-out: Stability
[4] = Metabolic stability of rat liver microsomes assessed as parent compound remaining at 0.1 uM after 60 mins in presence of NADPH by LC/MS/MS analysis; format: ADME, microsome; details: read-out: Stability
[5] = biological target: T1, Alcohol dehydrogenase class-3; experiment: Inhibition of human GSNOR assessed as reduction in NADH consumption at 10 uM after 3 mins by spectrophotometric analysis relative to control
Target sequence in this assay (P11766 2-374 limits assumed): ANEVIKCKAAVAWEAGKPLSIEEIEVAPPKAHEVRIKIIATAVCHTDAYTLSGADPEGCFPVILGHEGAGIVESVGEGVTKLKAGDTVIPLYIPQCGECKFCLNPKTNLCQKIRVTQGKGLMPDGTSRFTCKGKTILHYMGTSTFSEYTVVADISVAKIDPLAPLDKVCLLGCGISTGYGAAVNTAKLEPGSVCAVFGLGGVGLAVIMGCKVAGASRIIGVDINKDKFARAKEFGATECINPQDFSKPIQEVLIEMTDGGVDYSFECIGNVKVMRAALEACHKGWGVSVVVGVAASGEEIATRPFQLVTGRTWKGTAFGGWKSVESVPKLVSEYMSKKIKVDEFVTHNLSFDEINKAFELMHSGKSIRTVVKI

[6] = Half life in C57/BL6 mouse at 30 mg/kg, po; format: ADME, organism-based; details: in vivo
[7] = Clearance in C57/BL6 mouse at 3 mg/kg, iv; format: ADME, organism-based; details: in vivo
[8] = AUC (0 to 24 hrs) in C57/BL6 mouse at 30 mg/kg, po; format: ADME, organism-based; parameters: time < 24 hr, dose 30 mg/kg, route oral; details: in vivo
[9] = Volume of distribution in C57/BL6 mouse at 3 mg/kg, iv; format: ADME, organism-based; details: in vivo, read-out: Vz
[10] = Ratio of drug uptake in lung to plasma of C57/BL6 mouse at 3 mg/kg, iv or 30 mg/kg, po; format: ADME, organism-based
[11] = Oral bioavailability in C57/BL6 mouse at 30 mg/kg; format: ADME, organism-based; details: in vivo
[12] = Cmax in C57/BL6 mouse at 30 mg/kg, po; format: ADME, organism-based; parameters: dose 30 mg/kg, route oral; details: in vivo
[13] = Tmax in C57/BL6 mouse at 30 mg/kg, po; format: ADME, organism-based; details: in vivo
[14] = Half life in C57/BL6 mouse at 3 mg/kg, iv; format: ADME, organism-based; details: in vivo

inhibition at 20 min, 10 µM (CYP2C9) | inhibition at 40 min, 10 µM (CYP2C19) | IC50 [1] | inhibition at 20 min, 10 µM (CYP2D6) | inhibition at 20 min, 10 µM (CYP1A2) | inhibition at 20 min, 10 µM (CYP3A4) | remaining at 1 h, 0.1 µM [2] | remaining at 1 h, 0.1 µM [3] | remaining at 1 h, 0.1 µM [4] | also measured | SMILES
83% | 76% | 12 nM | 63% | 47% | 43% |  |  |  |  | Cc1cc(-n2ccnc2)ccc1-c1ccc(-c2nnn[nH]2)cc1Cl
 |  | 29 nM |  |  |  |  |  |  |  | O=C(O)c1ccc(-c2ccc(-n3ccnc3)cc2)c(F)c1
 |  | 308 nM |  |  |  |  |  |  |  | Clc1cc(-c2nnn[nH]2)ccc1-c1ccc(-n2ccnc2)cn1
77% | 69% | 22 nM | 73% | 74% | 54% | 31% | 66% | 58% |  | c1cn(-c2ccc(-c3ccc(-c4nn[nH]n4)cc3)cc2)cn1
64% | 42% | 20 nM | 11% | 20% | 1% | 19% | 83% | 39% |  | Clc1cc(-n2ccnc2)cnc1-c1ccc(-c2nnn[nH]2)cc1
 |  |  |  |  |  |  |  |  | inhibition [5]: 36% | Clc1cc(-c2nn[nH]n2)ccc1-c1ccc(-n2cnnn2)cc1
 |  | 38 nM |  |  |  |  |  |  |  | O=C(O)c1ccc(-c2ccc(-n3ccnc3)cc2)c(C(F)(F)F)c1
61% | 69% | 17 nM | 9% | 1% | 17% | 17% | 94% | 50% |  | Cc1cc(-n2ccnc2)cnc1-c1ccc(-c2nnn[nH]2)cc1
18% | 33% | 97 nM | 37% | 10% | -2% | 92% | 63% | 82% |  | Cc1nccn1-c1ccc(-c2ccc(-c3nnn[nH]3)cc2)cc1
 |  |  |  |  |  |  |  |  | inhibition [5]: 60% | NC(=O)c1ccc(-c2ccc(-n3ccnc3)cc2)cc1
94% | 86% | 6.1 nM | 37% | 56% | 33% | 58% | 100% | 71% |  | CCc1cc(-n2ccnc2)ccc1-c1ccc(-c2nnn[nH]2)cc1
 |  |  |  |  |  |  |  |  | inhibition [5]: 10% | N#Cc1ccc(-c2ccc(-n3ccnc3)cc2)cc1
 |  | 59 nM |  |  |  |  |  |  |  | O=C(O)c1ccc(-c2ccc(-n3ccnc3)cc2Cl)cc1
 |  |  |  |  |  |  |  |  | inhibition [5]: 27% | N#Cc1ccc(-c2ccc(-c3nn[nH]n3)cc2)cc1
 |  | 3280 nM |  |  |  |  |  |  |  | c1cc(-c2nn[nH]n2)ccc1-c1ccc(-c2nnn[nH]2)cc1
 |  | 214 nM |  |  |  |  |  |  |  | O=C(O)c1ccc(-c2ccc(-n3ccnc3)cn2)cc1
78% | 88% | 11 nM | 52% | 41% | 30% | 78% | 97% | 80% |  | CCc1cc(-n2ccnc2)ccc1-c1ccc(-c2nnn[nH]2)cc1F
37% | 18% | 20 nM | 14% | 22% | 4% | 48% | 100% | 64% |  | Cc1cc(-n2ccnc2)ccc1-c1ccc(C(=O)O)cc1
 |  | 39 nM |  |  |  |  |  |  |  | FC(F)(F)c1cc(-c2nnn[nH]2)ccc1-c1ccc(-n2ccnc2)cc1
60% | 45% | 14 nM | 12% | -15% | 19% | 42% | 100% | 53% | half-life [6]: 5.3 h; clearance [7]: 17 mL/min/kg; AUC(0-t) at 24 h [8]: 14200 ng·h/mL; Vd [9]: 2.8 L/kg; Kp [10]: 0.62; bioavailability [11]: 49%; Cmax [12]: 2560 ng/mL; Tmax [13]: 0.5 h; half-life [14]: 1.9 h | Cc1cc(-n2ccnc2)cnc1-c1ccc(-c2nnn[nH]2)cc1F
 |  | 66 nM |  |  |  |  |  |  |  | CCc1cc(-n2ccnc2)cnc1-c1ccc(-c2nnn[nH]2)cc1
 |  | 44 nM |  |  |  |  |  |  |  | Cc1cc(-c2nnn[nH]2)ccc1-c1ccc(-n2ccnc2)cn1
